According to patent US7132504B2, “Hepatitis C virus inhibitors” (Bristol-Myers Squibb Company, priority 2003, dated 2006):

How the values were obtained:
[1] = target: T1, HCV NS3/4A protease complex (UniProt P27958, C1454S/C1711G, species not given); assay: Recombinant HCV NS3/4A protease complex FRET peptide assay (strain not stated); type: biochemical; details: NS3/4A protease enzyme assay, read-out: Activity Range IC50
T1 construct: fused on or other part: Three-lysine solubilising tail at the C-terminus of NS4A
Excerpt: The purpose of this in vitro assay was to measure the inhibition of HCV NS3 protease complexes, derived from the BMS strain, H77 strain or J416S strain, as described below, by compounds of the present invention. This assay provides an indication of how effective compounds of the present invention would be in inhibiting HCV proteolytic activity.
Serum from an HCV-infected patient was obtained from Dr. T. Wright, San Francisco Hospital. An engineered full-length cDNA (compliment deoxyribonucleic acid) template of the HCV genome (BMS strain) was constructed from DNA fragments obtained by reverse transcription-PCR (RT-PCR) of serum RNA (ribonucleic acid) and using primers selected on the basis of homology between other genotype 1a strains. From the determination of the entire genome sequence, a genotype 1a was assigned to the HCV isolate according to the classification of Simmonds et al. (See P Simmonds, K A Rose, S Graham, S W Chan, F McOmish, B C Dow, E A Follett, P L Yap and H Marsden, J. Clin. Microbiol., 31(6), 1493–1503 (1993)). […] The infectious clones, H77 (1a genotype) and J4L6S (1b genotype) were obtained from R. Purcell (NIH) and the sequences are published in Genbank (AAB67036, see Yanagi, M., Purcell, R. H., Emerson, S. U. and Bukh, J. Proc. Natl. Acad. Sci. U.S.A. 94(16), 8738–8743 (1997); AF054247, see Yanagi, M., St Claire, M., Shapiro, M., Emerson, S. U., Purcell, R. H. and Bukh, J, Virology 244 (1), 161–172. (1998)).
The H77 and J4L6S strains were used for production of recombinant NS3/4A protease complexes. DNA encoding the recombinant HCV NS3/4A protease complex (amino acids 1027 to 1711) for these strains were manipulated as described by P. Gallinari et al. (see Gallinari P, Paolini C, Brennan D, Nardi C, Steinkuhler C, De Francesco R. Biochemistry. 38(17):5620–32, (1999)). Briefly, a three-lysine solubilizing tail was added at the 3′-end of the NS4A coding region. The cysteine in the P1 position of the NS4A–NS4B cleavage site (amino acid 1711) was changed to a glycine to avoid the proteolytic cleavage of the lysine tag. Furthermore, a cysteine to serine mutation was introduced by PCR at amino acid position 1454 to prevent the autolytic cleavage in the NS3 helicase domain. The variant DNA fragment was cloned in the pET21b bacterial expression vector (Novagen) and the NS3/4A complex was expressed in Escherichia. coli strain BL21 (DE3) (Invitrogen) following the protocol described by P. Gallinari et al. (see Gallinari P, Brennan D, Nardi C, Brunetti M, Tomei L, Steinkuhler C, De Francesco R., J Virol. 72(8):6758–69 (1998)) with modifications. Briefly, the NS3/4A protease complex expression was induced with 0.5 millimolar (mM) Isopropyl β-D-1-thiogalactopyranoside (IPTG) for 22 hours (h) at 20° C. A typical fermentation (1 Liter (L)) yielded approximately 10 grams (g) of wet cell paste. The cells were resuspended in lysis buffer (10 mL/g) consisting of 25 mM N-(2-Hydroxyethyl)Piperazine-N′-(2-Ethane Sulfonic acid) (HEPES), pH 7.5, 20% glycerol, 500 mM Sodium Chloride (NaCl), 0.5% Triton X-100, 1 microgram/milliliter (“μg/mL”) lysozyme, 5 mM Magnesium Chloride (MgCl2), 1 μg/ml Dnasel, 5 mM β-Mercaptoethanol (βME), Protease inhibitor—Ethylenediamine Tetraacetic acid (EDTA) free (Roche), homogenized and incubated for 20 minutes (min) at 4° C. The homogenate was sonicated and clarified by ultra-centrifugation at 235000 g for 1 h at 4° C. Imidazole was added to the supernatant to a final concentration of 15 mM and the pH adjusted to 8.0. The crude protein extract was loaded on a Nickel—Nitrilotriacetic acid (Ni-NTA) column pre-equilibrated with buffer B (25 mM HEPES, pH 8.0, 20% glycerol, 500 mM NaCl, 0.5% Triton X-100, 15 mM imidazole, 5 mM βME). The sample was loaded at a flow rate of 1 mL/min. The column was washed with 15 column volumes of buffer C (same as buffer B except with 0.2% Triton X-100). The protein was eluted with 5 column volumes of buffer D (same as buffer C except with 200 mM Imidazole). […]

[2] = tested on: HCV replicon in Huh7 cells; assay: HCV replicon cell-based assay (FRET); parameters: species or system HCV strain 1b; details: Hepatitis C virus, Huh-7, 96 h, 4 days, read-out: Activity Range EC50
Excerpt: An HCV replicon whole cell system was established as described by Lohmann V, Korner F, Koch J, Herian U, Theilmann L, Bartenschlager R., Science 285(5424):110–3 (1999). This system enabled us to evaluate the effects of our HCV Protease compounds on HCV RNA replication. Briefly, using the HCV strain 1b sequence described in the Lohmann paper (Assession number:AJ238799), an HCV cDNA was generated encoding the 5′ internal ribosome entry site (IRES), the neomycin resistance gene, the EMCV (encephalomyocarditis viurs)-IRES and the HCV nonstructural proteins, NS3–NS5B, and 3′ non-translated region (NTR). In vitro transcripts of the cDNA were transfected into the human hepatoma cell line, Huh7. […] Resulting cell lines were characterized for positive and negative strand RNA production and protein production over time.
Huh7 cells, constitutively expressing the HCV replicon, were grown in Dulbecco's Modified Eagle Media (DMEM) containing 10% Fetal calf serum (FCS) and 1 mg/ml G418 (Gibco-BRL). Cells were seeded the night before (1.5×10^4 cells/well) in 96-well tissue-culture sterile plates. Compound and no compound controls were prepared in DMEM containing 4% FCS, 1:100 Penicillin/Streptomysin, 1:100 L-glutamine and 5% DMSO in the dilution plate (0.5% DMSO final concentration in the assay). Compound/DMSO mixes were added to the cells and incubated for 4 days at 37° C. After 4 days, plates were rinsed thoroughly with Phosphate-Buffered Saline (PBS) (3 times 150 μl). The cells were lysed with 25 μl of a lysis assay reagent containing the FRET peptide (RET S1, as described for the in vitro enzyme assay). The lysis assay reagent was made from 5× cell Luciferase cell culture lysis reagent (Promega #E153A) diluted to 1× with distilled water, NaCl added to 150 mM final, the FRET peptide diluted to 10 μM final from a 2 mM stock in 100% DMSO. The plate was then placed into the Cytofluor 4000 instrument which had been set to 340 nm excitation/490 nm emission, automatic mode for 21 cycles and the plate read in a kinetic mode. EC50 determinations were carried out as described for the IC50 determinations. […]
The percentage inhibition was calculated using the formula below: […]
The values were graphed and analyzed using XLFit to obtain the EC50 value.

Compound	IC50 [1]	EC50 [2]
C=CC1C[C@]1(NC(=O)[C@@H]1C[C@@H](Oc2cc(-c3ccccc3)nc3cc(OC)ccc23)CN1C(=O)[C@@H](NC(=O)OC)C(C)(C)C)C(=O)NS(=O)(=O)N1CCCCC1 (stereo partly drawn) [Compound 10]	< 150 nM	150 to 1500 nM
C=CC1C[C@]1(NC(=O)[C@@H]1C[C@@H](Oc2cc(-c3ccccc3)nc3cc(OC)ccc23)CN1C(=O)[C@@H](NC(=O)OC)C(C)(C)C)C(=O)NS(=O)(=O)N1CCC1 (stereo partly drawn) [Compound 4]	< 150 nM	150 to 1500 nM
C=CC1C[C@]1(NC(=O)[C@@H]1C[C@@H](Oc2cc(-c3ccccc3)nc3cc(OC)ccc23)CN1C(=O)[C@@H](NC(=O)OC(C)(C)C)C(C)(C)C)C(=O)NS(=O)(=O)N(C)c1ccccc1 (stereo partly drawn) [Compound 16]	< 150 nM	< 150 nM
C=CC1C[C@]1(NC(=O)[C@@H]1C[C@@H](Oc2nccc3cc(OC)ccc23)CN1C(=O)[C@@H](NC(=O)OC(C)(C)C)C(C)(C)C)C(=O)NS(=O)(=O)N(C)c1ccccc1 (stereo partly drawn) [Compound 20]	< 150 nM	< 150 nM
C=CC1C[C@]1(NC(=O)[C@@H]1C[C@@H](Oc2cc(-c3ccccc3)nc3cc(OC)ccc23)CN1C(=O)[C@@H](NC(=O)OC)C(C)(C)C)C(=O)NS(=O)(=O)N(C)C(C)C (stereo partly drawn) [Compound 7]	< 150 nM	150 to 1500 nM
C=CC1C[C@]1(NC(=O)[C@@H]1C[C@@H](Oc2cc(-c3ccccc3)nc3cc(OC)ccc23)CN1C(=O)[C@@H](NC(=O)OC)C(C)(C)C)C(=O)NS(=O)(=O)N(C)C (stereo partly drawn) [Compound 3]	< 150 nM	< 150 nM
C=CC1C[C@]1(NC(=O)[C@@H]1C[C@@H](Oc2cc(-c3ccccc3)nc3cc(OC)ccc23)CN1C(=O)[C@@H](NC(=O)OC)C(C)(C)C)C(=O)NS(=O)(=O)N1CCOCC1 (stereo partly drawn) [Compound 12]	150 to 1500 nM	–
C=CC1C[C@]1(NC(=O)[C@@H]1C[C@@H](Oc2nccc3cc(OC)ccc23)CN1C(=O)[C@@H](NC(=O)OC(C)(C)C)C(C)(C)C)C(=O)NS(=O)(=O)N(C)C(C)C (stereo partly drawn) [Compound 21]	150 to 1500 nM	150 to 1500 nM
C=CC1C[C@]1(NC(=O)[C@@H]1C[C@@H](Oc2nccc3cc(OC)ccc23)CN1C(=O)[C@@H](NC(=O)OC(C)(C)C)C(C)(C)C)C(=O)NS(=O)(=O)N(C)CC (stereo partly drawn) [Compound 19]	< 150 nM	< 150 nM
C=CC1CC1(NC(=O)[C@@H]1C[C@@H](Oc2cc(-c3ccccc3)nc3cc(OC)ccc23)CN1C(=O)[C@@H](NC(=O)OC)C(C)(C)C)C(=O)NS(=O)(=O)N1CCCC1 (mixture of isomers) [Compound 8]	< 150 nM	150 to 1500 nM
C=CC1C[C@]1(NC(=O)[C@@H]1C[C@@H](Oc2nccc3ccccc23)CN1C(=O)[C@@H](NC(=O)OC(C)(C)C)C(C)(C)C)C(=O)NS(=O)(=O)N(C)C(C)C (stereo partly drawn) [Compound 22]	150 to 1500 nM	–
C=CC1C[C@]1(NC(=O)[C@@H]1C[C@@H](Oc2nc(-c3ccncc3)cc3ccccc23)CN1C(=O)[C@@H](NC(=O)OC(C)(C)C)C(C)(C)C)C(=O)NS(=O)(=O)N(C)C (stereo partly drawn) [Compound 23]	< 150 nM	< 150 nM
C=CC1C[C@]1(NC(=O)[C@@H]1C[C@@H](Oc2nccc3cc(OC)ccc23)CN1C(=O)[C@@H](NC(=O)OC(C)(C)C)C(C)(C)C)C(=O)NS(=O)(=O)N1CCCC1 (stereo partly drawn) [Compound 18]	< 150 nM	< 150 nM
C=CC1C[C@]1(NC(=O)[C@@H]1C[C@@H](Oc2cc(-c3ccccc3)nc3cc(OC)ccc23)CN1C(=O)[C@@H](NC(=O)OC)C(C)(C)C)C(=O)NS(=O)(=O)N1CCN(C)CC1 (stereo partly drawn) [Compound 13]	150 to 1500 nM	> 1500 nM
C=CC1C[C@]1(NC(=O)[C@@H]1C[C@@H](Oc2cc(-c3ccccc3)nc3cc(OC)ccc23)CN1C(=O)[C@@H](NC(=O)OC)C(C)(C)C)C(=O)NS(=O)(=O)N1CCCC1 (stereo partly drawn) [Compound 6]	< 150 nM	150 to 1500 nM
C=CC1C[C@]1(NC(=O)[C@@H]1C[C@@H](Oc2cc(-c3ccccc3)nc3cc(OC)ccc23)CN1C(=O)[C@@H](NC(=O)OC)C(C)(C)C)C(=O)NS(=O)(=O)N(C)CC (stereo partly drawn) [Compound 1]	< 150 nM	< 150 nM
C=CC1C[C@]1(NC(=O)[C@@H]1C[C@@H](Oc2cc(-c3ccccc3)nc3cc(OC)ccc23)CN1C(=O)[C@@H](NC(=O)OC(C)(C)C)C(C)(C)C)C(=O)NS(=O)(=O)N(C)C (stereo partly drawn) [Compound 15]	< 150 nM	< 150 nM
C=CC1C[C@]1(NC(=O)[C@@H]1C[C@@H](Oc2cc(-c3ccccc3)nc3cc(OC)ccc23)CN1C(=O)[C@@H](NC(=O)OC)C(C)(C)C)C(=O)NS(=O)(=O)N(C)c1ccccc1 (stereo partly drawn) [Compound 5]	< 150 nM	< 150 nM
C=CC1C[C@]1(NC(=O)[C@@H]1C[C@@H](Oc2cc(-c3ccccc3)nc3cc(OC)ccc23)CN1C(=O)[C@@H](NC(=O)OC)C(C)(C)C)C(=O)NS(=O)(=O)N1CCCCO1 (stereo partly drawn) [Compound 11]	150 to 1500 nM	> 1500 nM
C=CC1C[C@]1(NC(=O)[C@@H]1C[C@@H](Oc2cc(-c3ccccc3)nc3cc(OC)ccc23)CN1C(=O)[C@@H](NC(=O)OC(C)(C)C)C(C)(C)C)C(=O)NS(=O)(=O)N(C)CC (stereo partly drawn) [Compound 14]	< 150 nM	< 150 nM
C=CC1C[C@]1(NC(=O)[C@@H]1C[C@@H](Oc2nccc3cc(OC)ccc23)CN1C(=O)[C@@H](NC(=O)OC(C)(C)C)C(C)(C)C)C(=O)NS(=O)(=O)N(C)C (stereo partly drawn) [Compound 17]	< 150 nM	150 to 1500 nM
C=CC1C[C@]1(NC(=O)[C@@H]1C[C@@H](Oc2cc(-c3ccccc3)nc3cc(OC)ccc23)CN1C(=O)[C@@H](NC(=O)OC)C(C)(C)C)C(=O)NS(=O)(=O)N(C)OC (stereo partly drawn) [Compound 2]	< 150 nM	150 to 1500 nM
